22 compounds from patent publication US6476030B1, “Pyrazolo-triazine derivatives as ligands for GABA receptors” (Merck Sharp & Dohme Ltd., priority 1998, dated 2002) can be followed below.

Regarding `Fc1ccccc1-c1nncc2c(-c3ccccc3)c(OCc3ccccn3)nn12` [Example 8, 7-(2-Fluorophenyl)-3-phenyl-2-(pyridin-2-ylmethoxy)pyrazolo[1,5-d][1,2,4]triazine], the melting point (in general, the temperature of the solid-liquid transition) lay in the range of 182 to 183 °C.

For `CCn1ncnc1COc1nn2c(-c3cc(F)ccc3F)nncc2c1C(C)(C)C` [Example 22, 7-(2,5-Difluorophenyl)-3-(1,1-dimethylethyl)-2-(2-ethyl-2H-[1,2,4]triazol-3-ylmethoxy)pyrazolo[1,5-d][1,2,4]triazine], the melting point came out at 108 °C.

`Cn1ncnc1COc1nn2c(-c3ccccc3F)nncc2c1-c1ccccc1` [Example 1, 7-(2-Fluorophenyl)-2-(2-methyl-2H-[1,2,4]triazol-3-ylmethoxy)-3-phenylpyrazolo[1,5-d][1,2,4]triazine] yielded a melting point of 176 °C.

In turn, `Cn1ncnc1COc1nn2c(-c3ccccc3F)nncc2c1-c1cccc(F)c1` [Example 3, 3-(3-Fluorophenyl)-7-(2-fluorophenyl)-2-(2-methyl-2H-[1,2,4]triazol-3-ylmethoxy)pyrazolo[1,5-d][1,2,4]triazine] showed a melting point of 176 °C.

As for `CCn1ncnc1COc1nn2c(-c3ccccc3F)nncc2c1-c1ccsc1` [Example 93, 2-(2-Ethyl-2H-[1,2,4]triazol-3-ylmethoxy)-7-(2-fluorophenyl)-3-(thien-3-yl)pyrazolo[1,5-d][1,2,4]triazine], the melting point was in the range of 187 to 193 °C.

Compound `Cn1ncnc1COc1nn2c(-c3ccccc3F)nncc2c1-c1ccccn1` [Example 53, 7-(2-Fluorophenyl)-2-(2-methyl-2H-[1,2,4]triazol-3-ylmethoxy)-3-(pyridin-2-yl)pyrazolo[1,5-d][1,2,4]triazine] yielded a melting point of 186 to 187 °C.

As to `CCn1ncnc1COc1nn2c(-c3ccccc3F)nncc2c1-c1ccco1` [Example 91, 2-(2-Ethyl-2H-[1,2,4]triazol-3-ylmethoxy)-7-(2-fluorophenyl)-3-(furan-2-yl)pyrazolo[1,5-d][1,2,4]triazine], the melting point is 182 to 183 °C.

As to `Cn1ncnc1COc1nn2c(-c3ccccc3F)nncc2c1-c1ccccc1F` [Example 2, 3-(2-Fluorophenyl)-7-(2-fluorophenyl)-2-(2-methyl-2H-[1,2,4]triazol-3-ylmethoxy)pyrazolo[1,5-d][1,2,4]triazine], the melting point is 169 °C.

The compound `Fc1ccccc1-c1c(OCc2ncccc2OC2CCC2)nn2c(-c3ccccc3F)nncc12` [Example 65, 2-(3-Cyclobutyloxypyridin-2-ylmethoxy)-3,7-bis(2-fluorophenyl)-pyrazolo[1,5-d][1,2,4]triazine] returned a melting point of 66 °C.

For the compound `Cn1ncnc1COc1nn2c(-c3ccco3)nncc2c1-c1ccccc1F` [Example 36, 3-(2-Fluorophenyl)-7-(furan-2-yl)-2-(2-methyl-2H-[1,2,4]triazol-3-ylmethoxy)pyrazolo[1,5-d][1,2,4]triazine], the melting point is 204 to 206 °C.

`Cn1ncnc1COc1nn2c(-c3ccccc3F)nncc2c1C(C)(C)C` [Example 24, 3-(1,1-Dimethylethyl)-7-(2-fluorophenyl)-2-(2-methyl-2H-[1,2,4]triazol-3-ylmethoxy)pyrazolo[1,5-d][1,2,4]triazine] showed a melting point of 128 °C.

As for `Cn1c(COc2nn3c(-c4ccccc4F)nncc3c2-c2ccccc2F)nc2ccccc21` [Example 81, 3,7-bis(2-Fluorophenyl)-2-(1-methyl-1H-benzimidazol-2-ylmethoxy)pyrazolo[1,5-d][1,2,4]triazine], the melting point was 218 to 220 °C.

Take `Cn1ncnc1COc1nn2c(-c3ccoc3)nncc2c1-c1ccccc1F` [Example 80, 3-(2-Fluorophenyl)-7-(furan-3-yl)-2-(2-methyl-2H-[1,2,4]triazol-3-ylmethoxy)pyrazolo[1,5-d][1,2,4]triazine]: the melting point stood at 148 °C.

For the compound `Cn1ncnc1COc1nn2c(-c3ccccc3F)nncc2c1-c1ccc(F)cc1` [Example 4, 3-(4-Fluorophenyl)-7-(2-fluorophenyl)-2-(2-methyl-2H-[1,2,4]triazol-3-ylmethoxy)pyrazolo[1,5-d][1,2,4]triazine], the melting point amounted to 192 °C.

For `Cn1ncnc1COc1nn2c(-c3cnccn3)nncc2c1-c1ccccc1F` [Example 31, 3-(2-Fluorophenyl)-2-(2-methyl-2H-[1,2,4]triazol-3-ylmethoxy)-7-(pyrazin-2-yl)pyrazolo[1,5-d][1,2,4]triazine], the melting point was in the range of 179 to 180 °C.

`Fc1ccccc1-c1c(OCc2nc3ccccn3n2)nn2c(-c3ccccc3F)nncc12` [Example 82, 3,7-bis(2-Fluorophenyl)-2-([1,2,4]triazolo[1,5-a]pyridin-2-ylmethoxy)pyrazolo[1,5-d][1,2,4]triazine] yielded a melting point of 208 to 209 °C.

As for `Cn1ncnc1COc1nn2c(-c3ccccc3F)nncc2c1-c1cccs1` [Example 54, 7-(2-Fluorophenyl)-2-(2-methyl-2H-[1,2,4]triazol-3-ylmethoxy)-3-(thien-2-yl)pyrazolo[1,5-d][1,2,4]triazine], the melting point is 196 to 197 °C.

Compound `Cn1ncnc1COc1nn2c(-c3ccccc3F)nncc2c1-c1cccc(F)c1F` [Example 16, 3-(2,3-Difluorophenyl)-7-(2-fluorophenyl)2-(2-methyl-2H-[1,2,4]triazol-3-ylmethoxy)pyrazolo[1,5-d][1,2,4]triazine] showed a melting point of 176 °C.

With `Cn1ncnc1COc1nn2c(C3CC3)nncc2c1-c1ccccc1F` [Example 89, 7-Cyclopropyl-3-(2-fluorophenyl)-2-(2-methyl-2H-[1,2,4]triazol-3-ylmethoxy)pyrazolo[1,5-d][1,2,4]triazine], the melting point is 97 to 99 °C.

The compound `CCC(C)(C)c1c(OCc2ncnn2C)nn2c(-c3ccccc3F)nncc12` [Example 34, 3-(1,1-Dimethylpropyl)-7-(2-fluorophenyl)-2-(2-methyl-2H-[1,2,4]triazol-3-ylmethoxy)pyrazolo[1,5-d][1,2,4]triazine] had a melting point of 89 to 91 °C.

As to `Fc1ccccc1-c1c(OCc2cccnc2)nn2c(-c3ccccc3F)nncc12` [Example 63, 3,7-bis(2-Fluorophenyl)-2-(pyridin-3-ylmethoxy)pyrazolo[1,5-d][1,2,4]triazine], the melting point was found to be 146 °C.

In turn, `Cn1ncnc1COc1nn2c(-c3ccc(F)cc3)nncc2c1-c1ccccc1F` [Example 41, 3-(2-Fluorophenyl)-7-(4-fluorophenyl)-2-(2-methyl-2H-[1,2,4]-triazol-3-ylmethoxy)pyrazolo[1,5-d][1,2,4]triazine] registered a melting point of 191 °C.
